The results in this text go back to US20150351390A1, “COMPOSITIONS AND METHODS FOR AUXIN-ANALOG CONJUGATION” (PIONEER HI-BRED INTERNATIONAL, INC., priority 2012, published 2015).

Structures are written as SMILES.

For this assay, the system named is soybean seedlings. In words: Soybean seedling response to spot infiltrated auxins and conjugates. For 1st trifoliate leaf curl: key: 0 = no phenotype; +/− = threshold. Format: in vivo. The settings on record: for 1st trifoliate leaf curl: spot infiltration.

For `O=C(O)COc1ccc(Cl)cc1Cl` [2,4-D, 2,4-dichlorophenoxyacetic acid], the “1st trifoliate leaf curl” value turned out to be 0 (100 μM), 0 (250 μM) and 0 (500 μM). In addition, the “Plant response phenotype, soybean” value (100, 250 & 500 μM, result in words) was “increased auxinic response ranging from mild to extreme epinasty”.
